Our source for the IC50 and Ki values is ChEMBL document CHEMBL1909046, “DrugMatrix in vitro pharmacology data”.

In experiment [1] the target is Kappa-type opioid receptor (Homo sapiens, UniProt P41145). In words: DRUGMATRIX: Opiate kappa (OP2, KOP) radioligand binding (ligand: [3H] Diprenorphine). It counts as cell membranes, HEK293, Membrane. The conditions noted are these: Not Active = under 50% inhibition at 10 µM.
Experiment [2] in a line: DRUGMATRIX: Phorbol Ester radioligand binding (ligand: [3H] PDBu). Particulars: Not Active = under 50% inhibition at 10 µM. Type of experiment: cell membranes, Mus musculus, ICR, Brain, Membrane.
The next experiment concerns the target D(1A) dopamine receptor (Homo sapiens, UniProt P21728). In words: DRUGMATRIX: Dopamine D1 radioligand binding (ligand: [3H] SCH-23390). It counts as cell membranes, CHO, Membrane. The conditions noted are these: cho; Not Active = under 50% inhibition at 10 µM.
Experiment [3] can be described thus: DRUGMATRIX: Platelet-Derived Growth Factor (PDGF) radioligand binding (ligand: [125I] PDGF). It counts as cell-based. Particulars: nih3t3; Not Active = under 50% inhibition at 10 µM.
Experiment [4] in a line: DRUGMATRIX: Imidazoline I2, Central radioligand binding (ligand: [3H] Idazoxan). Type of experiment: cell membranes, Rattus norvegicus, Wistar, Cerebral cortex, Membrane. Particulars: Not Active = under 50% inhibition at 10 µM.
A short description of experiment [5]: DRUGMATRIX: Nicotinic Acetylcholine radioligand binding (ligand: [125I] Epibatidine). It counts as cell membranes, Membrane. Particulars: imr-32; Not Active = under 50% inhibition at 10 µM.
The nature of experiment [6]: DRUGMATRIX: Phosphodiesterase PDE3 enzyme inhibition (substrate: [3H]cAMP + cAMP). It counts as tissue-based, Homo sapiens. Particulars: platelet; Not Active = under 50% inhibition at 10 µM.

Sequence of Kappa-type opioid receptor (P41145 whole entry): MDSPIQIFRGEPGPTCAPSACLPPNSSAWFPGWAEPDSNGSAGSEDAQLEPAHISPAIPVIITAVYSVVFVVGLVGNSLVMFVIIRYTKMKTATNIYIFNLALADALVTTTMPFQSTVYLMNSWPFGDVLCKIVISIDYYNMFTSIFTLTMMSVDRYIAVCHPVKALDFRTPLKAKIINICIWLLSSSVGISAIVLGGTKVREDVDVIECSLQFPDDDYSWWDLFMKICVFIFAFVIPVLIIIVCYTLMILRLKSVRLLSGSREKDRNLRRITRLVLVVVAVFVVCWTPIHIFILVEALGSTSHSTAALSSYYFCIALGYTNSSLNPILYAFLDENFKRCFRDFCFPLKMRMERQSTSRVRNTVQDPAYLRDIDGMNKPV
Sequence of D(1A) dopamine receptor (P21728 whole entry): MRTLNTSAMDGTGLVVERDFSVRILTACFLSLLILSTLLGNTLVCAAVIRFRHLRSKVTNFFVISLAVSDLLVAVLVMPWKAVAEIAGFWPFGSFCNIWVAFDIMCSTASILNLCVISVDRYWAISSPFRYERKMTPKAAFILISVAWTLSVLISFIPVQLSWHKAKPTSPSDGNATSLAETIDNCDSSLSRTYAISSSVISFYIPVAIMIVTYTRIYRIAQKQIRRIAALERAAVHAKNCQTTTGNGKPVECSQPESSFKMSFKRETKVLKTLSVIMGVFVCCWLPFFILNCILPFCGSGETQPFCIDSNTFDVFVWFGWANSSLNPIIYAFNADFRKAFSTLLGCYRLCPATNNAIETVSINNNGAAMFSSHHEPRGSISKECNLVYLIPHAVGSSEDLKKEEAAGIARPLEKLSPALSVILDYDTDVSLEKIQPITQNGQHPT

By IC50 is commonly meant the concentration that gives 50% inhibition. With `CN1[C@@H]2CC[C@H]1C[C@@H](OC(c1ccccc1)c1ccccc1)C2` [BENZTROPINE], the IC50 result in experiment [1] (hek293) is “Not Active”.
As for `CN1CCN(C2=Nc3cc(Cl)ccc3Nc3ccccc32)CC1` [CLOZAPINE], the IC50 entry in experiment [1] (hek293) is recorded as “Not Active”.
For the compound `CC(C)NC[C@@H](O)COc1cccc2ccccc12` [DEXPROPRANOLOL], the IC50 entry in experiment [1] (hek293) is “Not Active”.
`CC(C)NC[C@H](O)COc1cccc2ccccc12` [LEVOPROPRANOLOL]: in experiment [1] (hek293), the IC50 result is given as “Not Active”.
One may read the Ki as a dissociation constant, usually derived from enzyme kinetics or from competition with a known ligand. With `Clc1ccc(COC(Cn2ccnc2)c2ccc(Cl)cc2Cl)c(Cl)c1` (stereo not drawn) [MICONAZOLE], the Ki in experiment [1] came to 2.64 µM. For the same compound, the IC50 in experiment [1] (read-out: IC50) came out at 6.59 µM.
With `OCCOCCN1CCN(C2=Nc3ccccc3Sc3ccccc32)CC1` [QUETIAPINE], the IC50 entry in experiment [1] (hek293) was “Not Active”.
On to `O=C(O)c1ccccc1O` [SALICYLIC ACID], for which the IC50 result (in experiment [2]; on D(1A) dopamine receptor; in experiment [3]; in experiment [4]; in experiment [5]; in experiment [6]) was “Not Active” throughout. The Ki result in experiment [2], in experiment [3], in experiment [4], in experiment [5] and in experiment [6] was “Not Active” each time.
For `C[S+]([O-])c1ccc(-c2nc(-c3ccncc3)c(-c3ccc(F)cc3)[nH]2)cc1` (stereo not drawn) [SB-203580], the IC50 entry in experiment [1] (hek293) was “Not Active”.
For the compound `O=C1C[C@@H]2OCC=C3CN4CC[C@]56c7ccccc7N1[C@H]5[C@H]2[C@H]3C[C@H]46` [STRYCHNINE], the IC50 entry (in experiment [2]; at D(1A) dopamine receptor; in experiment [3]; in experiment [4]; in experiment [5]; in experiment [6]) was “Not Active” each time. The Ki result in experiment [2], in experiment [3], in experiment [4], in experiment [5] and in experiment [6] was “Not Active” each time.
As for `C[N+](C)(C)CCOC(=O)CCC(=O)OCC[N+](C)(C)C.[Cl-].[Cl-]` [SUCCINYLCHOLINE CHLORIDE], the IC50 entry (in experiment [2]; at D(1A) dopamine receptor; in experiment [3]; in experiment [4]; in experiment [5]; in experiment [6]) was “Not Active” in each case. The Ki entry in experiment [2], in experiment [3], in experiment [4], in experiment [5] and in experiment [6] was “Not Active” each time.
On to `CCCCCCCCNC(C)C(O)c1ccc(SC(C)C)cc1` (stereo not drawn) [SULOCTIDIL], for which the IC50 result (in experiment [2]; in experiment [1] (hek293); at D(1A) dopamine receptor; in experiment [4]; in experiment [6]) was “Not Active” throughout. The Ki entry in experiment [2], in experiment [4] and in experiment [6] was “Not Active” in each case.
Turning to TRANSPLATIN, the IC50 result (in experiment [2]; at D(1A) dopamine receptor; in experiment [3]; in experiment [4]; in experiment [5]; in experiment [6]) was “Not Active” in each case. Besides, the Ki result (in experiment [2]; at D(1A) dopamine receptor; in experiment [3]; in experiment [4]; in experiment [5]; in experiment [6]) was “Not Active” each time.
As for ZIRCONIUM(IV) CHLORIDE, the IC50 result (in experiment [2]; on D(1A) dopamine receptor; in experiment [3]; in experiment [4]; in experiment [5]; in experiment [6]) was “Not Active” throughout. Also, the Ki result (in experiment [2]; on D(1A) dopamine receptor; in experiment [3]; in experiment [4]; in experiment [5]; in experiment [6]) was “Not Active” throughout.
